According to patent publication US20080050452A1, “METAL-CONTAINING FORMULATIONS AND METHODS OF USE” (priority 2006, published 2008):

System: C. freundii
Test: Minimal bactericidal concentration (MBC) assay
Assay type: cell-based, Citrobacter freundii
Conditions: C. freundii isolate NP410
Protocol: Minimal bactericidal concentration (MBC) assay—Overnight-grown MIC plates, prepared as described in Example 16, were evaluated to determine the MIC. Culture was then sampled from wells at and near the MIC using sterile inoculating loops, and transferred to fresh MHA plates to determine if viable bacteria remained. […] The MBC was determined as the well in the MIC plate which contained the lowest concentration of silver yielding no bacterial growth on the MHA plate.

Question: Which MBC does the source give for `O=[N+]([O-])[O-].[Ag+]` [AgNO3, silver nitrate] here?
Answer: 3 parts silver per million
